For one experiment, the target named is T1, KRAS G12D/RAF1 (Homo sapiens, UniProt P01116, G12D).
T1 construct: KRAS (1-169) proteins were expressed in E. coli at 18° C; His6-MBP (N, cleaved yes); made in house; host or cells: E. coli
The experiment in a line: Protein-protein interaction (PPI) HTRF assay KRAS G12D/RAF1. The experiment is classed as binding. The settings on record: KRAS G12D/RAF1, GppNHp-loaded KRAS; 30 minutes pre-incubation. The procedure, abridged:
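Biotinylated GppNHp-loaded RAS (1-169) on streptavidin-d2 acceptor and His-RAF1 RBD (52-131) on anti-His Tb donor, each prepared at 16 nM in pH 7.5 Tris buffer. Compound preincubated with RAS 30 min, then RAF1 added for 1 h at room temperature. IC50 from HTRF 665/615 ratio, normalized to no compound (0%) and untagged RAF1 (100%).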
(In general: Time-resolved FRET reads energy transfer from a long-lived donor to a nearby acceptor.)

The subject of experiment [1] is AGS (KRAS G12D) cells, phospho-ERK. The experiment in a line: pERK In Cell Western (ICW) assay (Method B). The format is cell-based. The settings on record: 3 hours. As for the experimental part:
pERK ICW is a high throughput screening assay to evaluate the cellular potency of mutant KRAS small molecule inhibitors. KRAS mutant cell line AGS (KRAS^G12D) were purchased from ATCC and maintained in DMEM and RPMI medium supplemented with 10% fetal bovine serum and Penicillin/Streptomycin.
Cells grown in exponential phase were trypsinized, resuspended in fresh media, and viable cells were counted using a cell counter with Trypan Blue (BioRad TC20). Cells were seeded into 384-well plate (Greiner 781091) at density of 5,000 cells/well for AGS and allowed to grow overnight in a 37° C. CO2 incubator. The next day, compounds were dispensed into wells with a ½ log, 10-point serial dilution and top concentration of 10 μM using Tecan D300e dispenser and incubated for 3 hours in a 37° C. CO2 incubator. Cells were then fixed with paraformaldehyde (Electron Microscopy Sciences, 15710, 4% final concentration) for 30 min, permeabilized with wash buffer (1×PBS+0.1% Triton X-100) for 30 min and blocked with Odyssey blocking buffer (Li—COR 927-70001) for 1 hour, all at room temperature (RT). Phospho-ERK antibody (CST 4370L) was diluted 1:500 in Odyssey blocking+0.2% Tween 20 and incubated with cells overnight at 4° C. The next day, plates were washed 5× with wash buffer, incubated with IRDye 800 CW, Goat anti-Rabbit secondary antibody (Li—COR 926-32211, 1:500) and DRAQ5 (CST 4084L, 1:5,000) diluted in Odyssey blocking+0.2% Tween 20 for 1 hour, washed 5×, and imaged on an Odyssey CLx imaging system.
For data analysis, signal intensities from 800 (phosphor-ERK) and 700 (DRAQ5) channels were extracted, and phospho-ERK signals were normalized to DRAQ5 signals for each well and percent of DMSO control values were computed. Data were then imported into Graphpad Prism to compute half-maximal inhibitory concentrations (IC50) using a 4-parameter variable slope model. Z-factor for each plate was computed from signals derived from wells treated with either DMSO or 5 μM of Trametinib. AGS pERK ICW (Method B) IC50 (uM) values of selected compounds are depicted in Table 2 with compounds having a value 0.001 uM to 0.01 uM as ++++; >0.01 uM to 0.1 uM as +++; >0.1 uM to 1 uM as ++; 1 uM to 10 uM as + and >10 uM as NA.

The source of these data is patent US11912723B2, “KRAS modulators and uses thereof” (Quanta Therapeutics, Inc., priority 2022, dated 2024).

Some results are limits rather than exact numbers.

The IC50 is the point on the concentration scale where inhibition reaches its midpoint. The low end stands for greater potency, the high end for weaker potency.

T1 sequence (P01116 1-169 isoform P01116-2 G12D): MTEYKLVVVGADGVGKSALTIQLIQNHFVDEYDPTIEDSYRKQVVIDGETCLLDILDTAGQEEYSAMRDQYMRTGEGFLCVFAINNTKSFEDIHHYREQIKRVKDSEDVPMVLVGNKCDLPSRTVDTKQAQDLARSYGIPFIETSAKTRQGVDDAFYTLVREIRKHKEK

For `CN1Cc2c(nc(OC[C@@]34CCCN3C[C@H](F)C4)nc2N2CCCCCC2)C[C@]12CCc1c(Cl)cccc12` [Compound 28A, (7S)-4-(azepan-1-yl)-4′-chloro-2-[[(2R,8S)-2-fluoro-1,2,3,5,6,7-hexahydropyrrolizin-8-yl]methoxy]-6-methyl-spiro[5,8-dihydropyrido[4,3-d]pyrimidine-7,1′-indane]], the IC50 on KRAS G12D/RAF1 is over 100 µM; in experiment [1] (Homo sapiens), over 10 µM.

As to `N#CNC1CCCN(c2nc(OC[C@@]34CCCN3C[C@H](F)C4)nc3c2COC2(CCc4c(Cl)cccc42)C3)C1` (stereo partly drawn) [Compound 29, [1-[4′-chloro-2-[[(2R,8S)-2-fluoro-1,2,3,5,6,7-hexahydropyrrolizin-8-yl]methoxy]spiro[5,8-dihydropyrano[4,3-d]pyrimidine-7,1′-indane]-4-yl]-3-piperidyl]cyanamide], the half-maximal inhibitory concentration (IC50) against KRAS G12D/RAF1 lay in the range of 10 to 100 µM; in experiment [1] (Homo sapiens), 1 to 10 µM.

Regarding `Oc1ccc2c(c1)C1(CCC2)Cc2nc(OC[C@@]34CCCN3C[C@H](F)C4)nc(N3CCCCCC3)c2CO1` (single isomer, unassigned) [Compound 7], the IC50 on KRAS G12D/RAF1 is over 100 µM; in experiment [1] (Homo sapiens), over 10 µM.

For the compound `CN(C)C(=O)c1nn2c(c1Cl)CN(c1nc(OC[C@@]34CCCN3C[C@H](F)C4)nc3c1CN(C)[C@@]1(CCc4c(Cl)cccc41)C3)CCC2` [Compound 55, 3-chloro-5-((S)-4-chloro-2′-(((2R,7aS)-2-fluorotetrahydro-1H-pyrrolizin-7a(5H)-yl)methoxy)-6′-methyl-2,3,5′,8′-tetrahydro-6′H-spiro[indene-1,7′-pyrido[4,3-d]pyrimidin]-4′-yl)-N,N-dimethyl-5,6,7,8-tetrahydro-4H-pyrazolo[1,5-a][1,4]diazepine-2-carboxamide], the IC50 against KRAS G12D/RAF1 was in the range of 10 to 100 µM; in experiment [1] (Homo sapiens), 0.1 to 1 µM.

Consider `OC1CCCN(c2nc(OC[C@@]34CCCN3C[C@H](F)C4)nc3c2COC2(CCCc4ccc(Br)cc42)C3)CC1` (stereo partly drawn) [Compound 4, 1-[7′-bromo-2-[[(2R,8S)-2-fluoro-1,2,3,5,6,7-hexahydropyrrolizin-8-yl]methoxy]spiro[5,8-dihydropyrano[4,3-d]pyrimidine-7,1′-tetralin]-4-yl]azepan-4-ol], for which the IC50 is over 100 µM against KRAS G12D/RAF1 and over 10 µM in experiment [1] (Homo sapiens).

In the case of `CN(C)C(=O)c1cc2n(n1)CCCN(c1nc(OC[C@@]34CCCN3C[C@H](F)C4)nc3c1CO[C@]1(CCc4c(Cl)cccc41)C3)C2` [Compound 27B, 5-[(7R)-4′-chloro-2-[[(2R,8S)-2-fluoro-1,2,3,5,6,7-hexahydropyrrolizin-8-yl]methoxy]spiro[5,8-dihydropyrano[4,3-d]pyrimidine-7,1′-indane]-4-yl]-N,N-dimethyl-4,6,7,8-tetrahydropyrazolo[1,5-a][1,4]diazepine-2-carboxamide], the IC50 at KRAS G12D/RAF1 fell in the range of 10 to 100 µM; in experiment [1] it was 0.1 to 1 µM.

Turning to `CN1CCN(C(=O)c2nn3c(c2Cl)CN(c2nc(OC[C@@]45CCCN4C[C@H](F)C5)nc4c2CO[C@@]2(CCc5c(Cl)cccc52)C4)CCC3)CC1` [Compound 50, [3-chloro-5-[(7S)-4′-chloro-2-[[(2R,8S)-2-fluoro-1,2,3,5,6,7-hexahydropyrrolizin-8-yl]methoxy]spiro[5,8-dihydropyrano[4,3-d]pyrimidine-7,1′-indane]-4-yl]-4,6,7,8-tetrahydropyrazolo[1,5-a][1,4]diazepin-2-yl]-(4-methylpiperazin-1-yl)methanone], the IC50 fell in the range of 10 to 100 µM on KRAS G12D/RAF1 and 0.1 to 1 µM in experiment [1] (Homo sapiens).

With `CN(C)C(=O)c1cc2n(n1)CCCN(c1nc(OC[C@@]34CCCN3C[C@H](F)C4)nc3c1COC1(CCCc4c(Cl)cc(O)cc41)C3)C2` (mixture of isomers) [Compound 43, 5-[5′-chloro-7′-hydroxy-2-[[rac-(2R,8S)-2-fluoro-1,2,3,5,6,7-hexahydropyrrolizin-8-yl]methoxy]spiro[5,8-dihydropyrano[4,3-d]pyrimidine-7,1′-tetralin]-4-yl]-N,N-dimethyl-4,6,7,8-tetrahydropyrazolo[1,5-a][1,4]diazepine-2-carboxamide], the figures for the half-inhibitory concentration (IC50) (at KRAS G12D/RAF1; in experiment [1] (Homo sapiens)) were 10 to 100 µM and 1 to 10 µM, respectively.

As to `Cc1nnc(-c2nn3c(c2Cl)CN(c2nc(OC[C@@]45CCCN4C[C@H](F)C5)nc4c2CN(C)[C@@]2(CCCc5ccccc52)C4)CCC3)n1C` [Compound 90, (7S)-4-[3-chloro-2-(4,5-dimethyl-1,2,4-triazol-3-yl)-4,6,7,8-tetrahydropyrazolo[1,5-a][1,4]diazepin-5-yl]-2-[[(2R,8S)-2-fluoro-1,2,3,5,6,7-hexahydropyrrolizin-8-yl]methoxy]-6-methyl-spiro[5,8-dihydropyrido[4,3-d]pyrimidine-7,1′-tetralin]], the results for the IC50 (on KRAS G12D/RAF1; in experiment [1] (Homo sapiens)) were 10 to 100 µM and 0.01 to 0.1 µM, respectively.

`CN(C)C(=O)c1nn2c(c1Cl)CN(c1nc(OCC3(CN4CCOCC4)CC3)nc3c1CO[C@@]1(CCc4c(Cl)cccc41)C3)CCC2` [Compound 47, 3-chloro-5-[(7S)-4′-chloro-2-[[1-(morpholinomethyl)cyclopropyl]methoxy]spiro[5,8-dihydropyrano[4,3-d]pyrimidine-7,1′-indane]-4-yl]-N,N-dimethyl-4,6,7,8-tetrahydropyrazolo[1,5-a][1,4]diazepine-2-carboxamide]: the half-maximal inhibitory concentration (IC50) at KRAS G12D/RAF1 was over 100 µM; in experiment [1] (Homo sapiens) it was 1 to 10 µM.

Take `N#CC1CCCN(c2nc(OC[C@@]34CCCN3C[C@H](F)C4)nc3c2COC2(CCc4c(Cl)cccc42)C3)CC1` (stereo partly drawn) [Compound 16, 1-(4-chloro-2′-(((2R,7aS)-2-fluorotetrahydro-1H-pyrrolizin-7a(5H)-yl)methoxy)-2,3,5′,8′-tetrahydrospiro[indene-1,7′-pyrano[4,3-d]pyrimidin]-4′-yl)azepane-4-carbonitrile]: the IC50 at KRAS G12D/RAF1 was over 100 µM; in experiment [1] (Homo sapiens) it was over 10 µM.

On to `F[C@H]1CN2CCC[C@@]2(COc2nc3c(c(N4CCCCCC4)n2)COC2(CCCc4c(Br)cccc42)C3)C1` (stereo partly drawn) [Compound 5, 4-(azepan-1-yl)-5′-bromo-2-[[(2R,8S)-2-fluoro-1,2,3,5,6,7-hexahydropyrrolizin-8-yl]methoxy]spiro[5,8-dihydropyrano[4,3-d]pyrimidine-7,1′-tetralin]], for which the values for the IC50 (against KRAS G12D/RAF1; in experiment [1] (Homo sapiens)) were 10 to 100 µM and over 10 µM, respectively.

Turning to `C=C1CN2CCCC2(COc2nc3c(c(N4CCCn5nc(C(=O)N(C)C)c(Cl)c5C4)n2)CO[C@@]2(CCc4c(Cl)cccc42)C3)C1` (mixture of isomers) [Compound 54, 3-chloro-N,N-dimethyl-5-[rac-(7S)-4′-chloro-2-[(6-methylene-2,3,5,7-tetrahydro-1H-pyrrolizin-8-yl)methoxy]spiro[5,8-dihydropyrano[4,3-d]pyrimidine-7,1′-indane]-4-yl]-4,6,7,8-tetrahydropyrazolo[1,5-a][1,4]diazepine-2-carboxamide], the IC50 against KRAS G12D/RAF1 lay in the range of 10 to 100 µM; in experiment [1] (Homo sapiens), 0.1 to 1 µM.

On to `CN(C)C(=O)c1nn2c(c1Cl)CN(c1nc(OC[C@@]34CCCN3C[C@H](F)C4)nc3c1CN(C)[C@@]1(CCc4cccc(Cl)c41)C3)CCC2` [Compound 69, 3-chloro-5-[(7S)-7′-chloro-2-[[(2R,8S)-2-fluoro-1,2,3,5,6,7-hexahydropyrrolizin-8-yl]methoxy]-6-methyl-spiro[5,8-dihydropyrido[4,3-d]pyrimidine-7,1′-indane]-4-yl]-N,N-dimethyl-4,6,7,8-tetrahydropyrazolo[1,5-a][1,4]diazepine-2-carboxamide], for which the IC50 fell in the range of 10 to 100 µM against KRAS G12D/RAF1 and 0.01 to 0.1 µM in experiment [1] (Homo sapiens).
